Laboratory results: patent publication US20140163075A1, “MODULATION OF THE UBIQUITIN-PROTEASOME SYSTEM (UPS)” (NETHERLAND CANCER INSTITUTE, priority 2011, published 2014)
“Also recorded” adds a separate entry of the source. Where two headings read alike, the source gives them in different places. Residues, ends and D or L forms follow the SMILES beside them. *: point of attachment. Cbz = O=C(OCc1ccccc1)*

Key:
[1] = tested on: 20S and/or 26S proteasome; experiment: FACS-based proteasome activity assay with Me4BodipyFL-Ahx3Leu3VS activity probe in MelJuSo wild type cells; assay type: cell-based, human
Procedure: MelJuSo cells are washed, trypsinized and resuspended in medium containing FBS and antibiotics. After counting the concentration is adjusted to 200,000 cells per mL. Using the Wellmate microplate dispenser fitted with small bore nozzle tubing, 50 μL of cell suspension is transferred to each well of a black 384 wells plate (10,000 cells/well).
A brief spin down will prevent any liquid from being lost when the plate cover is removed. Using a Hamilton liquid handling workstation the compounds are diluted to appropriate concentrations. To “wash” the cells prior to exposure 30 μL of medium is removed from each well and is replaced with fresh medium. Then the compounds are added to the medium of the cells (final concentration 5 μM).
Using the Wellmate microplate dispenser fitted with small bore nozzle tubing, […] of probe suspension is transferred to each well resulting in a final probe concentration of 200 nM. Plates are left to incubate for two hours. Then the medium is removed and the cells are washed one time with PBS. The PBS is removed and 10 μL of trypsin is added to each well. The plates are left on a shaker for 2 minutes, placed in an incubator for 5 minutes and put on a shaker again for 2 minutes. 40 μL of PBS containing 2% FBS is added per well and the plates are put on the shaker for 2 minutes. Finally, 20 μL of PBS containing 4% formaldehyde is added and the plates are left to shake for at least 15 minutes. Plates are left on a shaker at 4° C. until they can be measured.
The FITS unit is installed on the FACS and everything is turned on. To remove air from the system and ascertain that everything works fine the system is primed twice. One by one the plates are brought down and measured. In between plates a “daily clean” cycle is performed to prevent the system from becoming clogged. After the last plate the system should be cleaned again.
Analysis is always performed per plate. Throughout the analysis the following parameters are considered: • Forward Scatter (FSC): size of the cell • Side Scatter (SSC): granularity of the cell • Number of events (#) • Probe signal (FL-1): proteasome activity • FL-2 and FL-3: signal in other channels
All DMSO samples are checked and aberrant wells (low # events, high SSC, no signal) are excluded. The average of the FL-1 from all remaining DMSO samples is used to calculate the “ratio vs. DMSO” and the FL-1 log 2 ratio of the experimental samples. This will result in DMSO samples having a FL-1 log 2 value around zero. Compounds are considered “activators” or “hits” if the FL-1 log 2 ratio is >1, and inhibitors if the FL-1 log 2 ratio is […].
(§1) Cells were washed once with phosphate buffered saline (PBS, 1 GIBCO tablet in 500 mL MilliQ). Fresh medium containing the compound at the indicated concentration was added. After the incubation time 200 nM of Me4BodipyFL-Ahx3Leu3VS activity probe was added to the cells and after two hours of incubation cells were harvested for subsequent analysis by FACS or post-lysis fluorescence detection.
Celts were washed once with PBS, trypsin was added and the plate was placed at 37° C. for 5 minutes to allow the cells to detach. When detached the cells were resuspended in PBS supplemented with 2% FBS. Cells were fixed with formaldehyde (final concentration 1% in PBS). All samples were measured using a FACSCalibur flow cytometer (BD Biosciences). […] The complete workflow used for the compound screens is described above in more detail.
The compound libraries mentioned above are screened using a FACS-based activity assay. The proteasome activity probe Me4BodipyFL-Ahx3Leu3VS activity probe is used to fluorescently label the proteasome. This probe binds irreversibly to the catalytic domains of the 20S CP. When proteasome activity is increased, increased probe binding results in an increase in fluorescent signal compared to untreated cells.

proteasome = settings: literature overview; cited from earlier work
MelJuSo wild type cells = experiment: Cell viability (resazurin) assay, MG132 induced cell death; settings: 1 μM, 24 hours
[2] = tested on: proteasome subunits (β2- and β5-subunits); experiment: SDS-PAGE in-gel fluorescence of probe-labelled proteasome subunits in MelJuSo (MEL-JUSO) cells; assay type: cell-based, human; settings: for activation effect on the β2- and β5-subunits: MEL-JUSO cells, p38 inhibitor panel tested at 1 and 5 μM, effect at 5 μM, FIG. 14B
Procedure: as §1
Cells were washed once with PBS, trypsin (6 well plate: 500 μL, 12 well plate: 200 μL, 24 well plate: 100 μL) was added and the plate was placed at 37° C. for 5 minutes to allow the cells to detach. When fully detached the cells were resuspended in fresh culture medium. Medium with cells was collected and after a centrifugation step (1100 ref for 2 minutes) the cells (pellet) were resuspended in cold HR buffer (50 mM Tris pH=7.4, 5 mM MgCl2, 250 mM sucrose, 1 mM DTT and 2 mM ATP). Lysis of the cells is achieved by sonification (Bioruptor, high intensity for 5 minutes with an ON/OFF cycle of 30 seconds) at 4° C. After a centrifugation step (13.600 rpm for 10 minutes) to remove cell debris the protein concentration (absorbance at 280 nm) of the supernatant is measured with a NanoDrop spectrophotometer. Fresh HR buffer without any cells was used as a blank,
Equal amounts of protein (15-20 μg) were denatured by heating the samples for 10 minutes at 71° C. in loading buffer (450 μL 4× loading buffer (Invitrogen), 45 μL β-Mercaptoethanol and 105 μl, MilliQ, 2 parts sample to 1 part loading buffer). The samples were loaded onto a 12% SDS-PAGE gel using the NuPAGE system from Invitrogen. MOPS (3-(N-morpholino)propanesulfonic acid) was used as a running buffer. Gels run at 180 V for approximately 1.5-2.0 hours and were directly imaged using the ProXPRESS 2D Proteomic imaging system (Perkin Elmer). Resolution was set at 100 μm, excitation at 480/30 and emission at 530/30. To verify protein loading, gels were stained with Coomassie Brilliant Blue. Images were analyzed using Totallab analysis software (Nonlinear Dynamics, Newcastle upon Tyne, UK) to quantify the intensity of the bands detected.
Additionally, FACS and SDS-PAGE validation experiments were done in which cells were incubated for 16 hours with 0.1, 0.5, 1.0 or 5.0 μM compound.
The proteasomal subunits are then labeled using the fluorescent […] probe, which selectively binds only to active β-subunits of the proteasome. The fluorogenic-labeled proteasome subunits were visualized directly in-gel by fluorescence scanning.
To further investigate this, MelJuSo wild type cells were incubated with 5 μM Win 62,577 for one hour. Then the medium was changed for regular medium without the compound present. After one or two hours of “washout” cells were stained with the proteasome activity probe and analyzed with SDS-PAGE followed by fluorescent scanning of the gel. The results of this experiment are depicted in FIG. 17.

p38α = p38α (Homo sapiens, UniProt Q16539); settings: literature [80, 83]; cited from earlier work
[3] = LOPAC and JHCCL library screen, 5 μM compound, 16 hours, 200 nM probe two hours

Sequence of p38α (Q16539 whole entry): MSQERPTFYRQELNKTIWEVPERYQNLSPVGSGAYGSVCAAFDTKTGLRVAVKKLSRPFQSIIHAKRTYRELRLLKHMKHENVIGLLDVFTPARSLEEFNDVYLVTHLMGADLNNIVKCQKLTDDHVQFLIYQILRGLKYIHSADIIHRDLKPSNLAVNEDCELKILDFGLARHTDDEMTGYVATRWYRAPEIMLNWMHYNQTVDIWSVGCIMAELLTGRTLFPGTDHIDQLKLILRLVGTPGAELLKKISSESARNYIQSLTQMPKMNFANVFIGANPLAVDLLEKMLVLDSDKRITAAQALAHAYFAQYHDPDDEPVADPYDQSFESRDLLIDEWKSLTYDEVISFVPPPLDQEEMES

**Q.** Which “time dependence of proteasome activation (FL-1 log 2 ratio)” value ([1]; 0.1, 0.5, 1.0 or 5.0 μM compound for 4, 16, 24 or 48 hours) does the source give for CCCn1c(=O)c2[nH]c(C3CCCC3)nc2n(CCC)c1=O [DPCPX, 8-cyclopenthyl-1,3-dipropylxanthine] here?
**A.** both concentration and time dependent; also recorded: displayed an increase in activation over time

**Q.** What about the “screening hit (FL-1 log 2 ratio >1.00 and no exclusion criterion met)” value [1, 3] of the same compound?
**A.** identified as hits

**Q.** With CCCCC/C=C\C/C=C\CCCCCCCC(=O)O [Linoleic acid] as the compound, how does the “Results: purified proteasome/lysate” value (proteasome) read?
**A.** Increases all 3 proteasome

**Q.** Which “fluorescent probe signal compared to untreated cells” value [1] does the source give for CC(C)C[C@@H](C=O)NC(=O)[C@H](CC(C)C)NC(=O)[C@H](CC(C)C)NC(=O)OCc1ccccc1 [MG132] (Cbz-Leu-Leu-Leu-aldehyde) here?
**A.** reduces the signal compared to untreated cells

**Q.** And the cytotoxicity (MelJuSo wild type cells)?
**A.** highly cytotoxic

**Q.** For CCCCCCCC/C=C\CCCCCCCC(=O)O [Oleic acid], which “Results: purified proteasome/lysate” value (proteasome) is on record?
**A.** Increases all 3 proteasome

**Q.** Which “activation effect on the β2- and β5-subunits” value (“activation effect” below) [2] does the source give for COc1cccc(-c2cc(=O)c3ccccc3o2)c1N [PD98059] here?
**A.** most pronounced; also recorded: pronounced activation effect

**Q.** And the “activation effect” value ([2]; listed as PD98052)?
**A.** seems to enhance the activity

**Q.** With Oc1ccc(-c2nc(-c3ccc(F)cc3)c(-c3ccncc3)[nH]2)cc1 [SB202190] as the compound, how does the “inhibition of p38α isoform” value (p38α) read?
**A.** inhibits both the p38α and p38β-isoforms

**Q.** What about the “activation effect” value [2] of the same compound?
**A.** pronounced activation effect

**Q.** And the “activation effect” value ([2]; listed as SB202150)?
**A.** most pronounced

**Q.** Which “Results: purified proteasome/lysate” value (proteasome) does the source give for CCCCCCCCCCCCOS(=O)(=O)[O-].[Na+] [SDS] here?
**A.** Increases all 3 proteasome

**Q.** With Fc1ccc(-c2nc3n(c2-c2ccncc2)CCS3)cc1 [SKF86002] as the compound, how does the “inhibition of p38α isoform” value (p38α) read?
**A.** inhibits only p38α

**Q.** What does the source list for C#C[C@]1(O)CC[C@H]2C3CCC4=Cc5nc6nc7ccccc7n6cc5C[C@]4(C)C3CC[C@@]21C (some centres unmarked) [Win 62,577]?
**A.** concentration dependence of proteasome activation (FL-1 signal) [1]: dose-dependent increase of the fluorescent signal; screening hit (FL-1 log 2 ratio >1.00 and no exclusion criterion met) [1]: identified as hits; time dependence of proteasome activation (FL-1 log 2 ratio) [1]: mild decrease after 48 hours of incubation; probe signal after one hour of incubation, no washout [2]: strong activation; also recorded: clear increase in signal; probe signal after one hour of washout [2]: still more than the untreated control but less when compared to the no washout; probe signal after two hours of washout [2]: disappeared; timeframe of onset and termination of increasing proteasome activity [2]: 1 to 2 h

**Q.** Which “Results: purified proteasome/lysate” value (proteasome) does the source give for CC/C=C\C/C=C\C/C=C\CCCCCCCC(=O)O [alpha linolenic acid] here?
**A.** Increases all 3 proteasome

**Q.** For CN1[C@@H]2CC[C@H]1C[C@@H](OC(c1ccccc1)c1ccccc1)C2 [benztropin], which “screening hit (FL-1 log 2 ratio >1.00 and no exclusion criterion met)” value [1, 3] is on record?
**A.** initially identified in the JHCCL screen

**Q.** Which “screening hit (FL-1 log 2 ratio >1.00 and no exclusion criterion met)” value [1, 3] does the source give for OCCN(CCO)c1nc(N2CCCCC2)c2nc(N(CCO)CCO)nc(N3CCCCC3)c2n1 [dipyrimadole, Dipyrimadole] here?
**A.** identified as hits in both

**Q.** For CN(C)CCC[C@@]1(c2ccc(F)cc2)OCc2cc(C#N)ccc21 [escitalopram], which “screening hit (FL-1 log 2 ratio >1.00 and no exclusion criterion met)” value [1, 3] is on record?
**A.** initially identified in the JHCCL screen

**Q.** Which “screening hit (FL-1 log 2 ratio >1.00 and no exclusion criterion met)” value [1, 3] does the source give for CC(C)OC(=O)C(C)(C)Oc1ccc(C(=O)c2ccc(Cl)cc2)cc1 [fenofibrate, Fenofibrate] here?
**A.** identified as hits

**Q.** Which “screening hit (FL-1 log 2 ratio >1.00 and no exclusion criterion met)” value [1] does the source give for CN(C)C(=O)C(CCN1CCC(O)(c2ccc(Cl)cc2)CC1)(c1ccccc1)c1ccccc1 [loperamide, Loperamide] here?
**A.** identified as hits

**Q.** Which “screening hit (FL-1 log 2 ratio >1.00 and no exclusion criterion met)” value [1, 3] does the source give for CN1C[C@H](CNC(=O)OCc2ccccc2)C[C@@H]2c3cccc4c3c(cn4C)C[C@H]21 [metergoline, Metergoline] here?
**A.** identified as hits

**Q.** Which “screening hit (FL-1 log 2 ratio >1.00 and no exclusion criterion met)” value [1, 3] does the source give for CC#C[C@]1(O)CC[C@H]2[C@@H]3CCC4=CC(=O)CCC4=C3[C@@H](c3ccc(N(C)C)cc3)C[C@@]21C [mifepristone, Mifepristone] here?
**A.** identified as hits

**Q.** With O=c1[nH]c2ccccc2n1C1CCN(CCCC(c2ccc(F)cc2)c2ccc(F)cc2)CC1 [pimozide, Pimozide] as the compound, how does the “screening hit (FL-1 log 2 ratio >1.00 and no exclusion criterion met)” value [1, 3] read?
**A.** identified as hits

**Q.** For Nc1ccc2cc3ccc(N)cc3nc2c1 [proflavine, Proflavine], which “screening hit (FL-1 log 2 ratio >1.00 and no exclusion criterion met)” value [1, 3] is on record?
**A.** identified as hits

**Q.** Which “screening hit (FL-1 log 2 ratio >1.00 and no exclusion criterion met)” value [1] does the source give for COc1ccc(CCN(C)CCCC(C#N)(c2ccc(OC)c(OC)c2)C(C)C)cc1OC (centres unmarked) [verapamil, Verapamil] here?
**A.** identified as hits in both

**Q.** For Cardiolipin, which “Results: purified proteasome/lysate” value (proteasome) is on record?
**A.** Increases mainly

**Q.** For Ceramides, which “Results: purified proteasome/lysate” value (proteasome) is on record?
**A.** Increases mainly

**Q.** For Lysophosphatidylinositol, which “Results: purified proteasome/lysate” value (proteasome) is on record?
**A.** Increases mainly

**Q.** Which “screening hit (FL-1 log 2 ratio >1.00 and no exclusion criterion met)” value [1] does the source give for Medroxyprogesterone here?
**A.** initially identified in the JHCCL screen

**Q.** Which “screening hit (FL-1 log 2 ratio >1.00 and no exclusion criterion met)” value [1, 3] does the source give for Methylbenzethonium here?
**A.** identified as hits

**Q.** With Polyarginine as the compound, how does the “Results: purified proteasome/lysate” value (proteasome) read?
**A.** Increases mainly

**Q.** With Polylysine as the compound, how does the “Results: purified proteasome/lysate” value (proteasome) read?
**A.** Increases mainly
